For this experiment, the target named is T1, human AMPK α2β2γ3 (Homo sapiens, UniProt O43741+P54646+Q9UGI9).
T1 construct: expressed in transfected cells; host or cells: HEK293AD cells, MaxCyte bulk electroporation
The experiment can be described thus: Primary cellular assay: γ3 associated phospho-Thr172 AMPK detection (custom pAMPK Surefire AlphaLISA) in α2β2γ3 bulk transiently transfected HEK293 cells. Format: cell-based. The following applies: activation of human AMPK α2β2γ3 (γ3 pThr172 AMPK signal) in transiently transfected HEK293 cells, 20 minutes compound incubation; for Emax: 20 min, read-out: Assay GMean Asy. Max (%); for Emax / Assay GMean Asy. Max (%): geometric mean of the asymptotic max; for EC50: geometric mean EC50, read-out: Assay GMean EC50. The procedure: Primary Cellular Assay—γ3 Associated Phospho-Thr172 AMPK Detection in α2β2γ3 Bulk Transiently Transfected HEK293 Cells
The cellular potencies of the compounds were evaluated using a custom pAMPK Surefire AlphaLISA designed to assess γ3 associated phospho-Thr172 AMPK and modulation by small molecules in AMPK α2β2γ3 transiently transfected HEK293 cells.
A pAMPK Surefire AlphaLISA (PE-ASLU-PAMPK) assay available through Perkin Elmer was modified to selectively assess γ3 pThr172 AMPK content (as opposed to total pThr172 AMPK) by labeling a γ3 antibody with a CaptSure™ tag and substituting it for the total α1c/α2 AMPK labeled antibodies in the kit. In the modified assay, the overall abundance of γ3 AMPK is recognized by the CaptSure γ3 antibody and the phosphorylated AMPK is recognized by biotinylated pThr172 antibody. Subsequent reactivity with streptavitin donor beads and anti CaptSure conjugated acceptor beads brings the molecules into close proximity. Upon excitation at 680 nm, the donor bead converts ambient oxygen to a more excited singlet state which reacts with the acceptor bead and emits light at 520 to 620 nm. The intensity of the signal is proportional to the level of γ3 associated pThr172 AMPK phosphorylation.
In short, AMPK-α2+β2+γ3 MaxCyte bulk-transfected HEK293AD cells were thawed in growth media (DMEM High glucose+10% FBS) in a collagen-coated T150 flask and the cells were allowed to adhere and grow overnight in a 37° C. incubator. The following day, the cells were harvested and resuspended in plating medium (DMEM Low glucose+10% FBS) at a concentration of 100,000 cells per mL and 50 μL of this cell suspension was added to all wells of a 384-well plate using a Multidrop Combi. The cells were allowed to adhere and grow for 2 days in a 37° C. incubator. On assay day, compounds were diluted in 100% dimethyl sulfoxide (DMSO) in a 11 dose, half log dilution scheme and spotted in the cell plates at 1000× the final concentration. Compound incubations were performed in plating media for 20 minutes. Cells were washed with PBS, lysed and the signal was generated by subsequent additions of RB1 reagent from the kit, 1:1000 CaptSure γ3 labeled antibody in 1× immunoassay buffer, Anti-CaptSure acceptor beads and Streptavitin donor beads at final concentration of […]. The γ3 pThr172 AMPK signal was developed using EnVision™ multilabel reader (Perkin Elmer) using Alphascreen settings. The fluorescence emission was used to calculate the % effect relative to the HPE (30 μM) and ZPE (DMSO). EC50 curves were generated with the ActivityBase software using the XLfit model 205 to determine EC50 and Emax values.
For screening purposes, bulk AMPK-α2+β2+γ3 MaxCyte bulk transfection into HEK293AD cells were generated to support SAR screening as follows.
HEK293AD cells were seeded into 10 flasks at 2.7×10^7 cells per flask. The following day 12 mL of Trypl E dissociation reagent were added to each flask to lift the cells and the cells were then spun at 300×g for 5 minutes. Cells were washed once in MaxCyte EP buffer and then resuspended in MaxCyte EP buffer at 1×10^8 cells per mL. For transfection, 500×10^6 cells in 500 μl MaxCyte EP buffer were placed in a CL1.1 Processing Assembly (electroporation cell) with 1 mg/mL ([…]) of each of the plasmids pcDNA3.1(+)-human AMPK alpha 2, pcDNA3.1(+)-human AMPK beta 2 and pcDNA3.1(+)-human AMPK gamma 3 and the electroporation was carried out on the MaxCyte STX using the HEK293 electroporation protocol. Following electroporation, cells were transferred to a T175 flask containing growth medium (DMEM High glucose+10% FBS) and allowed to recover for 25 minutes, then the cells were resuspended to final volume of 900 mL and distributed into 6XT175 flasks and allowed to adhere and grow overnight in a 37° C. incubator. […]
On the technique in general: Alpha assays give light when donor and acceptor beads are brought close together.

Experimental findings from patent US12637461B2, “Compounds for the activation of AMPK” (PFIZER INC., priority 2022, dated 2026) are described below.

As usually defined, the EC50 is the concentration at which the effect is half-maximal.

T1 sequence (P54646 whole entry): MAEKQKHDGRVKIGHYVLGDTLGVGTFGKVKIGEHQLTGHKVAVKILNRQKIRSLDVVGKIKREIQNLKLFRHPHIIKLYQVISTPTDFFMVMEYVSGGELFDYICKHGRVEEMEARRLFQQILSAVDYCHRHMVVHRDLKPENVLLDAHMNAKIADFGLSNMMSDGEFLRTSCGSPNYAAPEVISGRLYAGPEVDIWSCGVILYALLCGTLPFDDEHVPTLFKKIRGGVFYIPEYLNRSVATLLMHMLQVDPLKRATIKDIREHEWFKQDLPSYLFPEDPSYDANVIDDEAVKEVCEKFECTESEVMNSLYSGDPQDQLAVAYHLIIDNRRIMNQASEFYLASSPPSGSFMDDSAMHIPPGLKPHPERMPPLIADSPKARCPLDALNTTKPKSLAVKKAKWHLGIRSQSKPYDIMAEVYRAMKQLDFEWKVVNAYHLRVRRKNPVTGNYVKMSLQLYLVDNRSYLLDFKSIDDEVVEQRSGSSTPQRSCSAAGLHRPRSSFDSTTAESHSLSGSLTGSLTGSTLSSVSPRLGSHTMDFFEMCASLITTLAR
T1 sequence (O43741 whole entry): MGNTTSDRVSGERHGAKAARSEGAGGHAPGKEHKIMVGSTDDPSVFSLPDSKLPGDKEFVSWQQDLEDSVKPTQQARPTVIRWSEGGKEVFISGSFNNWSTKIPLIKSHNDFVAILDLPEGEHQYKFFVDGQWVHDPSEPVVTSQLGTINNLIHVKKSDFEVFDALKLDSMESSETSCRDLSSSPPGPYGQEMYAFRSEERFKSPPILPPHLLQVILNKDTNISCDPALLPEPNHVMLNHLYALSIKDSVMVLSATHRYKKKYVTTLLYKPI
T1 sequence (Q9UGI9 whole entry): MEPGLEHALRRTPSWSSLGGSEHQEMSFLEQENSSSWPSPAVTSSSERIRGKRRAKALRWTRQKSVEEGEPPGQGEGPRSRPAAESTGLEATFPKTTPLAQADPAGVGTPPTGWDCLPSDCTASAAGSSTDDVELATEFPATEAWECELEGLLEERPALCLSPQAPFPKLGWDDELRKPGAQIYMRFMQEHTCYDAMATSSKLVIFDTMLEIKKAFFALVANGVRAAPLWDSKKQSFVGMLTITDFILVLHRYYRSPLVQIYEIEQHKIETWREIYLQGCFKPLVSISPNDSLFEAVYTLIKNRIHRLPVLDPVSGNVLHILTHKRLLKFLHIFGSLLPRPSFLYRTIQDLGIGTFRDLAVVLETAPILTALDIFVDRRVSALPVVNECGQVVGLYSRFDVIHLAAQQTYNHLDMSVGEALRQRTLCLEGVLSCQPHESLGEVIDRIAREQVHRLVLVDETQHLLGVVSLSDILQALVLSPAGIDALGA

As to `Cn1cc(F)c(N2CC(C)(c3cccc(Cl)c3F)c3c(ccc(NC4CN(C5CCCNC5=O)C4)c3F)C2=O)n1` (stereo not drawn) [Example 36, 4-(3-Chloro-2-fluorophenyl)-5-fluoro-2-(4-fluoro-1-methyl-1H-pyrazol-3-yl)-4-methyl-6-{[1-(2-oxopiperidin-3-γ1)azetidin-3-yl]amino}-3,4-dihydroisoquinolin-1(2H)-one], the Emax turned out to be 96.5% and the EC50 is 149 nM.

For `CN1CCCC(N2CC(Nc3ncc4c(c3F)[C@@](C)(c3cccc(Cl)c3F)CN(c3nn(C)cc3F)C4=O)C2)C1=O` (single isomer, unassigned) [compound 72], the EC50 was 42.3 nM and the “Assay GMean Asy. Max (%)” value amounted to 121%.

On to `Cn1cc(F)c(N2C[C@](C)(c3cccc(Cl)c3F)c3c(cnc(NC4CN(C(=O)C5CCC(F)(F)CN5)C4)c3F)C2=O)n1` (single isomer, unassigned) [compound 95], for which the Emax was found to be 78% and the EC50 is 125 nM.

With `Cn1cc(F)c(N2C[C@](C)(c3cccc(Cl)c3F)c3c(cnc(NC4CN(C(=O)C(C)(C)O)C4)c3F)C2=O)n1` [compound 61, (4R)-4-(3-chloro-2-fluorophenyl)-5-fluoro-2-(4-fluoro-1-methyl-1H-pyrazol-3-yl)-6-{[1-(2-hydroxy-2-methylpropanoyl)azetidin-3-yl]amino}-4-methyl-3,4-dihydro-2,7-naphthyridin-1(2H)-one], the Emax stood at 100% and the EC50 was found to be 92.2 nM.

As to `CN(C)c1nc(NC2CN(C(=O)C3(O)CC3)C2)nc2c1C(=O)N(c1ncccc1F)CC2(C)c1cccc(Cl)c1F` (single isomer, unassigned) [Example 38, 8-(3-Chloro-2-fluorophenyl)-4-(dimethylamino)-6-(3-fluoropyridin-2-yl)-2-{[1-(1-hydroxycyclopropane-1-carbonyl)azetidin-3-yl]amino}-8-methyl-7,8-dihydropyrido[4,3-d]pyrimidin-5(6H)-one], the Emax was determined as 217% and the EC50 stood at 146 nM.

`Cn1cc(F)c(N2C[C@](C)(c3cccc(Cl)c3F)c3c(cnc(NC4CN(C(=O)CN[C@@H]5CCOC5)C4)c3F)C2=O)n1` [compound 76, (4R)-4-(3-chloro-2-fluorophenyl)-5-fluoro-2-(4-fluoro-1-methyl-1H-pyrazol-3-yl)-4-methyl-6-{[1-{{[(3R)-oxolan-3-yl]amino}acetyl)azetidin-3-yl]amino}-3,4-dihydro-2,7-naphthyridin-1(2H)-one]: the Emax turned out to be 59.3% and the EC50 is 56.6 nM.

For the compound `CNCc1ccc(N2CC(C)(c3cccc(Cl)c3F)c3nc(NC4CN(C(=O)C5CC5F)C4)ncc3C2=O)cc1F` [compound 80, 8-(3-chloro-2-fluorophenyl)-2-({1-[(1S,2S)-2-fluorocyclopropane-1-carbonyl]azetidin-3-yl}amino)-6-{3-fluoro-4-[(methylamino)methyl]phenyl}-8-methyl-7,8-dihydropyrido[4,3-d]pyrimidin-5(6H)-one, from P11 (ENANT-2)], the Emax is 154% and the EC50 is 2500 nM.

`Cc1c(F)ccc(C2(C)CN(c3ccc(CO)cn3)C(=O)c3cnc(NC4CN(C(=O)N5C[C@@H]6C[C@H]5CO6)C4)c(F)c32)c1F` (single isomer, unassigned) [compound 107]: the Emax was 119% and the EC50 came to 32.7 nM.

Regarding `CC1(c2cccc(Cl)c2F)CN(c2ncccc2F)C(=O)c2cnc(NC3CN(C(=O)C4(O)CC4(C)C)C3)nc21` (single isomer, unassigned) [Example 29, 8-(3-Chloro-2-fluorophenyl)-6-(3-fluoropyridin-2-yl)-2-{[1-(1-hydroxy-2,2-dimethylcyclopropane-1-carbonyl)azetidin-3-yl]amino}-8-methyl-7,8-dihydropyrido[4,3-d]pyrimidin-5(6H)-one], the EC50 was found to be 181 nM and the “Assay GMean Asy. Max (%)” value was 216%.

In the case of `CNC(=O)CN1CC(Nc2ncc3c(c2F)[C@@](C)(c2cccc(Cl)c2F)CN(c2nn(C)cc2F)C3=O)C1` [compound 67, 2-(3-{[(5R)-5-(3-chloro-2-fluorophenyl)-4-fluoro-7-(4-fluoro-1-methyl-1H-pyrazol-3-yl)-5-methyl-8-oxo-5,6,7,8-tetrahydro-2,7-naphthyridin-3-yl]amino}azetidin-1-yl)-N-methylacetamide], the Emax stood at 40.1% and the EC50 worked out at 76.8 nM.

With `CN1CCCC(N2CC(Nc3ncc4c(c3F)[C@@](C)(c3cccc(Cl)c3F)CN(c3nn(C)cc3F)C4=O)C2)C1=O` (single isomer, unassigned) [compound 71], the Emax stood at 139% and the concentration for a half-maximal effect (EC50) came to 19.8 nM.

For `Cn1cnc(N2C[C@](C)(c3cccc(Cl)c3F)c3c(cnc(NC4CN(C(=O)C5CC5C(F)(F)F)C4)c3F)C2=O)c1` (single isomer, unassigned) [compound 98], the EC50 was determined as 114 nM and the “Assay GMean Asy. Max (%)” value amounted to 66.2%.

In the case of `Cn1cc(F)c(N2C[C@](C)(c3cccc(Cl)c3F)c3c(cnc(NC4CN(C(=O)C5CCC(F)(F)CN5)C4)c3F)C2=O)n1` (single isomer, unassigned) [compound 96], the EC50 stood at 60.5 nM and the “Assay GMean Asy. Max (%)” value worked out at 85.5%.

On to `Cn1cc(F)c(N2C[C@](C)(c3cccc(Cl)c3F)c3c(cnc(NC4CN(C(=O)N5C[C@@H]6C[C@H]5CO6)C4)c3F)C2=O)n1` [Example 21, (4R)-4-(3-chloro-2-fluorophenyl)-5-fluoro-2-(4-fluoro-1-methyl-1H-pyrazol-3-yl)-4-methyl-6-({1-[(1S,4S)-2-oxa-5-azabicyclo[2.2.1]heptane-5-carbonyl]azetidin-3-yl}amino)-3,4-dihydro-2,7-naphthyridin-1(2H)-one], for which the Emax stood at 142% and the EC50 was 39.8 nM.

Take `Cn1cnc(N2C[C@](C)(c3cccc(Cl)c3F)c3c(cnc(NC4CN(C(=O)C(C)(C)O)C4)c3F)C2=O)c1` [Example 3, (4R)-4-(3-Chloro-2-fluorophenyl)-5-fluoro-6-{[1-(2-hydroxy-2-methylpropanoyl)azetidin-3-yl]amino}-4-methyl-2-(1-methyl-1H-imidazol-4-yl)-3,4-dihydro-2,7-naphthyridin-1(2H)-one]: the Emax is 56% and the EC50 was 112 nM.

With `C[C@H](O)c1ccc(N2C[C@](C)(c3cccc(Cl)c3F)c3c(cnc(NC4CN(C(=O)[C@@H]5C[C@@H]5F)C4)c3F)C2=O)nc1` [compound 49, (4R)-4-(3-chloro-2-fluorophenyl)-5-fluoro-6-({1-[(1S,2S)-2-fluorocyclopropane-1-carbonyl]azetidin-3-yl}amino)-2-{5-[(1S)-1-hydroxyethyl]pyridin-2-yl}-4-methyl-3,4-dihydro-2,7-naphthyridin-1(2H)-one], the Emax was 77.3% and the EC50 was 63.9 nM.

Consider `CN1CCC(N2CC(Nc3ncc4c(c3F)[C@@](C)(c3cccc(Cl)c3F)CN(c3nn(C)cc3F)C4=O)C2)C1=O` (single isomer, unassigned) [compound 69], for which the Emax stood at 81.6% and the EC50 stood at 29.2 nM.

As for `Cn1cnc(N2C[C@](C)(c3cccc(Cl)c3F)c3c(cnc(NC4CN(C(=O)C5CC5C(F)(F)F)C4)c3F)C2=O)c1` (single isomer, unassigned) [compound 97], the EC50 came out at 150 nM and the “Assay GMean Asy. Max (%)” value is reported as 25.8%.
